{"source": "patent US7578964B2", "about": "“Powder injection molding composition and method of use” (priority 2001, dated 2009)", "origin": "cited, not measured here", "key": {"[1]": {"conditions": "solute solubility in water at 298.15 K; NIST Chemistry WebBook"}, "[2]": {"conditions": "for Octanol - Water Partition Coefficient log POW: Handbook of Environmental Data on Organic Compounds, 4th Edition"}}, "data": [{"smiles": "CC(C)=O", "note": "[Acetone]", "values": [{"measurement": "Henry's Law Constant k^0H", "setting": "[1]", "result": 30, "unit": "mol/Kg*bar"}, {"measurement": "Octanol - Water Partition Coefficient log POW", "setting": "[2]", "result": "−0.24"}]}, {"smiles": "c1ccccc1", "note": "[Benzene]", "values": [{"measurement": "Henry's Law Constant k^0H", "setting": "[1]", "result": 0.18, "unit": "mol/Kg*bar"}]}, {"smiles": "ClC(Cl)(Cl)Cl", "note": "[Carbon Tetrachloride]", "values": [{"measurement": "Henry's Law Constant k^0H", "setting": "[1]", "result": 0.03, "unit": "mol/Kg*bar"}, {"measurement": "Octanol - Water Partition Coefficient log POW", "setting": "[2]", "result": 2.64}]}, {"smiles": "CCOCC", "note": "[Diethyl Ether]", "values": [{"measurement": "Henry's Law Constant k^0H", "setting": "[1]", "result": "0.78-1.2 mol/Kg*bar"}, {"measurement": "Octanol - Water Partition Coefficient log POW", "setting": "[2]", "result": 0.77}]}, {"smiles": "C1COCCO1", "note": "[Dioxane]", "values": [{"measurement": "Octanol - Water Partition Coefficient log POW", "setting": "[2]", "result": "−0.42"}]}, {"smiles": "CCO", "note": "[Ethanol]", "values": [{"measurement": "Henry's Law Constant k^0H", "setting": "[1]", "result": 200, "unit": "mol/Kg*bar"}]}, {"smiles": "CCOC(C)=O", "note": "[Ethyl Acetate]", "values": [{"measurement": "Henry's Law Constant k^0H", "setting": "[1]", "result": 8.9, "unit": "mol/Kg*bar"}, {"measurement": "Octanol - Water Partition Coefficient log POW", "setting": "[2]", "result": 0.66}]}, {"smiles": "CCCCCC", "note": "[Hexane]", "values": [{"measurement": "Henry's Law Constant k^0H", "setting": "[1]", "result": 0.001, "unit": "mol/Kg*bar"}, {"measurement": "Octanol - Water Partition Coefficient log POW", "setting": "[2]", "result": 4}]}, {"smiles": "CC(C)O", "note": "[Isopropanol]", "values": [{"measurement": "Henry's Law Constant k^0H", "setting": "[1]", "result": 130, "unit": "mol/Kg*bar"}]}, {"smiles": "CCC(C)=O", "note": "[MEK]", "values": [{"measurement": "Octanol - Water Partition Coefficient log POW", "setting": "[2]", "result": 0.28}]}, {"smiles": "CO", "note": "[Methanol]", "values": [{"measurement": "Octanol - Water Partition Coefficient log POW", "setting": "[2]", "result": "−0.82"}]}, {"smiles": "ClCCl", "note": "[Methylene Chloride]", "values": [{"measurement": "Henry's Law Constant k^0H", "setting": "[1]", "result": 0.41, "unit": "mol/Kg*bar"}]}, {"smiles": "C1CCOC1", "note": "[THF]", "values": [{"measurement": "Octanol - Water Partition Coefficient log POW", "setting": "[2]", "result": 0.45}]}, {"smiles": "Cc1ccccc1", "note": "[Toluene]", "values": [{"measurement": "Henry's Law Constant k^0H", "setting": "[1]", "result": 0.15, "unit": "mol/Kg*bar"}]}, {"smiles": "ClC=C(Cl)Cl", "note": "[Trichloroethylene]", "values": [{"measurement": "Henry's Law Constant k^0H", "setting": "[1]", "result": 0.11, "unit": "mol/Kg*bar"}, {"measurement": "Octanol - Water Partition Coefficient log POW", "setting": "[2]", "result": 2.42}]}, {"smiles": "O=C1CCCCCN1", "note": "[caprolactam, ε-caprolactam]", "values": [{"measurement": "log POW value", "setting": "[2]; stated in text as known to those skilled in the art", "result": "about 0.12"}]}]}
